From patent US20250326794A1, “ANTI-CANCER LEUCINE-RICH PEPTIDES AND USES THEREOF” (KING'S COLLEGE LONDON, priority 2019, published 2025)
Like-named read-outs stand apart in the source and are kept apart here.

What was measured:
[1] = Tryptophan fluorescent binding assay, 3POPC/1POPG vesicles; details: 50 μM peptide, PBS pH 7.4, lipid per peptide
Procedure: (§1) In brief, 50 μM peptides were fixed and incubated with titrated POPC vesicles (black) or 3POPC/1POPG vesicles (grey) at concentrations of 0, 12.5, 25, 50, 100, 250, 500, 1000, 2500, and 5000 μM in phosphate buffered saline (1×, pH 7.4). The lipid concentration that causes 50% peptide binding was determined using a tryptophan fluorescent binding assay and the values are shown as lipid per peptide.
(§2) The lipids 1-palmitoyl-2-oleoyl-sn-glycero-3-phosphocholine (POPC), 1-palmitoyl-2-oleoyl-snglycero-3-phospho-(1′-rac-glycerol) (POPG) were purchased from Avanti Polar Lipids and dissolved in chloroform. Large unilamellar vesicles (LUVs) were produced by extrusion through 100 nm pore filter using an extruder and filters purchased from Avanti Polar Lipids.
(§3) Peptides (50 μM) and POPC/POPG LUVs (600 μM) were prepared in 10 mM phosphate buffer (pH 7.0). The solutions were incubated and measured after 60 minutes. Excitation was fixed at 280 nm (slit 9 nm) and emission was collected from 300 to 450 nm (slit 9 nm). The spectra were recorded using a Synergy H1 Hybrid Multi-Mode Reader (FIG. 3A) and Cytation™ 5 Cell Imaging Multi-Mode Reader (FIG. 2) from BioTek and were averaged over 3 scans.
(§4) Table 3 illustrates the lipid concentration-induced 50% peptide binding onto a liposome. 50 μM peptide was fixed and incubated with titrated lipid (POPC vesicles or 3POPC/1POPG vesicles) at concentrations of 0, 12.5, 25, 50, 100, 250, 500, 1000, 2500, and 5000 μM in phosphate buffered saline (1×, pH 7.4). The lipid concentration that causes 50% peptide binding was determined using tryptophan fluorescent binding assay and the values are shown as lipid per peptide. †N-terminus is free, C-terminus: —W—NH2.

[2] = test system: U2OS (human bone osteosarcoma)
Description: (§5) HMLER (human mammary endothelial cancer cells), HMLER-shEcad (human mammary endothelial cancer stem cells), and MCF-10A (healthy human mammary endothelial) cells were maintained in Mammary Epithelial Cell Growth Medium (MEGM) with supplements and growth factors: bovine pituitary extract (BPE), hydrocortisone, human epidermal growth factor (hEGF), insulin, and gentamicin/amphotericin-B. HEK293T (human embryonic kidney cell), and U2OS (Homo sapiens bone osteosarcoma) cells were maintained in Dulbecco's Modified Eagle's Medium (DMEM) with a final concentration of 10% fetal bovine serum. The cells were grown in T75 flask at 310 K in a humidified atmosphere containing 5% CO2.
(§6) The colourimetric MTT (3-(4,5-dimethylthiazol-2-yl)-2,5-diphenyltetrazolium bromide) assay was used to determine the toxicity of the anticancer peptides and conventional anticancer drugs. 5×10^3 cells were seeded in each well of a 96-well microplate. The cells were incubated overnight. Elevated concentrations of the compounds (0, 0.1, 0.2, 0.4, 0.8, 1.6, 3.1, 6.3, 12.5, 25, 50 and 100 μM) were added and incubated for 72 hr with a total volume 200 μL. The stock solutions of the compounds were prepared as 5 mM solutions in DMSO and diluted using media or in pure water. The final concentration of DMSO in each well was either 0.5% or 0% and this amount was present in the untreated control. After 72 hr, 20 μL of a 4 mg/mL solution of MTT in PBS was added to each well, and the plate was incubated for an additional 4 hr. The MEGM/MTT mixture was aspirated and 100 μL of DMSO was added to dissolve the resulting purple formazan crystals. The absorbance of the solutions in each well was read at 550 nm wavelength. Absorbance values were normalized to either DMSO-containing or non DMSO-containing control wells and plotted as concentration of test compound versus % cell viability. IC50 values were interpolated from the resulting dose dependent curves.
(§7) The peptides were screened against several different human cell lines and their cytotoxicity were determined. Cell lines utilised include MCF-10A (human breast epithelial cell), HMLER (human breast cancer bulk cell), HMLER-shEcad (human breast cancer stem cell), HEK293T (human embryonic kidney cell), and U2OS (human bone osteosarcoma).

[3] = ANTS/DPX liposome leakage assay, POPC vesicles; assay type: biochemical; details: 0.5 mM vesicles; for Peptide Concentration-induced 50% ANTS/DPX leakage at pH 4.8, POPC Vesicle: pH 4.8, lipid per peptide; for Peptide Concentration-induced 50% ANTS/DPX leakage at pH 7.4, POPC Vesicle: pH 7.4, lipid per peptide
Procedure: (§8) In brief, 0.5 mM POPC vesicles (grey) or POPC:POPG vesicles (ratio 3:1, black) were incubated with peptide concentrations of 0, 0.02, 0.04, 0.08, 0.16, 0.32, 0.64, 1.25, 2.5, 5, 10, and 20 μM in each A) hydrochloric acid-adjusted phosphate buffered saline (1×, pH 4.8) and B) phosphate buffered saline (1×, pH 7.4).
as §2
(§9) 5 mM ANTS (8-aminonaphthalene-1,3,6-trisulfonic acid, disodium salt) and 12.5 mM DPX (p-xylene-bis-pyridinium bromide) were entrapped in 0.1 μm diameter extruded vesicles with lipids. Gel filtration chromatography using a Sephadex G-100 (GE Healthcare Life Sciences Inc) was used to remove external free ANTS/DPX from LUVs with entrapped contents. LUVs were diluted to 0.5 mM and used to measure the leakage activity by addition of aliquots of peptides. Leakage was measured after 3 h incubation. 10% Triton was used as the positive control to measure the maximum leakage of the vesicle. Fluorescence emission spectra were recorded using excitation and emission wavelength of 350 nm and 510 nm for ANTS/DPX using a BioTek Synergy H1 Hybrid Multi-Mode Reader.
(§10) Table 4 illustrates peptide concentration-induced 50% ANTS/DPX liposome leakage. 0.5 mM POPC and 3POPC/1POPG vesicles were fixed and incubated with titrated peptide concentration ([…]) each in phosphate buffered saline (1×, pH 7.4) and hydrochloric acid-adjusted phosphate buffered saline (1×, pH 4.8). The values are shown as lipid per peptide. †N-terminus is free, C-terminus: —W—NH2.

[4] = test system: HMLER (human breast cancer bulk cell); assay: cells
Description: as §5, §6, §7

[5] = test system: HMLER-shEcad (human breast cancer stem cell); assay: cells
Description: as §5, §6, §7

[6] = test system: HEK293T (human embryonic kidney cell); assay: cells
Description: as §5, §6, §7

[7] = Tryptophan fluorescent binding assay, POPC vesicles; details: 50 μM peptide, PBS pH 7.4, lipid per peptide
Procedure: as §1, §2, §3, §4

[8] = ANTS/DPX liposome leakage assay, 3POPC/1POPG vesicles; assay type: biochemical; details: 0.5 mM vesicles; for Peptide Concentration-induced 50% ANTS/DPX leakage at pH 4.8, 3POPC/1POPG Vesicle: pH 4.8, lipid per peptide; for Peptide Concentration-induced 50% ANTS/DPX leakage at pH 7.4, 3POPC/1POPG Vesicle: pH 7.4, lipid per peptide
Procedure: as §8, §2, §9, §10

Compound | Lipid Concentration-induced 50% Peptide Binding, 3POPC/1POPG Vesicle [1] | IC50 ([2]; 72 h) | Peptide Concentration-induced 50% ANTS/DPX leakage at pH 4.8, POPC Vesicle [3] | Peptide Concentration-induced 50% ANTS/DPX leakage at pH 7.4, POPC Vesicle [3] | IC50 ([4]; 72 h) | IC50 ([5]; 72 h) | IC50 ([6]; 72 h) | Lipid Concentration-induced 50% Peptide Binding, POPC Vesicle [7] | Peptide Concentration-induced 50% ANTS/DPX leakage at pH 4.8, 3POPC/1POPG Vesicle [8] | Peptide Concentration-induced 50% ANTS/DPX leakage at pH 7.4, 3POPC/1POPG Vesicle [8] | IC50 ([2]; read-out: IC50 U20S, MTT, 72 hr) | IC50 ([4]; read-out: IC50 HMLER, MTT, 72 hr) | IC50 ([5]; read-out: IC50 HMLER-shEcad, MTT, 72 hr) | IC50 ([6]; read-out: IC50 HEK293T, MTT, 72 hr)
CC(C)C[C@H](NC(=O)CN)C(=O)N[C@@H](CC(C)C)C(=O)N[C@@H](CC(=O)O)C(=O)N[C@@H](CC(C)C)C(=O)N[C@@H](CC(C)C)C(=O)N[C@@H](CCC(=O)O)C(=O)N[C@@H](CC(C)C)C(=O)N[C@@H](CC(C)C)C(=O)N[C@@H](CC(C)C)C(=O)N[C@@H](CCC(=O)O)C(=O)N[C@@H](C)C(=O)N[C@@H](C)C(=O)NCC(=O)N[C@@H](Cc1c[nH]c2ccccc12)C(N)=O [DEE] | 0.38 L/P | 61 ± 1.41 µM | 110 L/P | 644 L/P | 5.55 ± 0.35 µM | 6.05 ± 2.76 µM | 9.91 ± 0.44 µM | 0.63 L/P | 164 L/P | 597 L/P | – | – | – | –
CC(C)C[C@H](NC(=O)CN)C(=O)N[C@@H](CC(C)C)C(=O)N[C@@H](CCCCN)C(=O)N[C@@H](CC(C)C)C(=O)N[C@@H](CC(C)C)C(=O)N[C@@H](CCCCN)C(=O)N[C@@H](CC(C)C)C(=O)N[C@@H](CC(C)C)C(=O)N[C@@H](CC(C)C)C(=O)N[C@@H](CCC(=O)O)C(=O)N[C@@H](C)C(=O)N[C@@H](C)C(=O)NCC(=O)N[C@@H](Cc1c[nH]c2ccccc12)C(N)=O [KKE] | 0.44 L/P | 12.8 ± 1.2 µM | 143 L/P | 1133 L/P | 2.05 ± 0.64 µM | 1.7 µM | 4.4 ± 0.14 µM | 0.48 L/P | 131 L/P | 346 L/P | – | – | – | –
CC(C)C[C@H](NC(=O)CN)C(=O)N[C@@H](CC(C)C)C(=O)N[C@@H](CCC(=O)O)C(=O)N[C@@H](CC(C)C)C(=O)N[C@@H](CC(C)C)C(=O)N[C@@H](CCCCN)C(=O)N[C@@H](CC(C)C)C(=O)N[C@@H](CC(C)C)C(=O)N[C@@H](CC(C)C)C(=O)N[C@@H](CCC(=O)O)C(=O)N[C@@H](C)C(=O)N[C@@H](C)C(=O)NCC(=O)N[C@@H](Cc1c[nH]c2ccccc12)C(N)=O [EKE] | 1.63 L/P | 8 ± 0.71 µM | 75 L/P | 738 L/P | 1.8 ± 0.28 µM | 1.3 ± 0.14 µM | 5.15 ± 0.21 µM | 2.75 L/P | 438 L/P | 657 L/P | – | – | – | –
CC(C)C[C@H](NC(=O)CN)C(=O)N[C@@H](CC(C)C)C(=O)N[C@@H](CC(=O)O)C(=O)N[C@@H](CC(C)C)C(=O)N[C@@H](CC(C)C)C(=O)N[C@@H](Cc1c[nH]cn1)C(=O)N[C@@H](CC(C)C)C(=O)N[C@@H](CC(C)C)C(=O)N[C@@H](CC(C)C)C(=O)N[C@@H](Cc1c[nH]cn1)C(=O)N[C@@H](C)C(=O)N[C@@H](C)C(=O)NCC(=O)N[C@@H](Cc1c[nH]c2ccccc12)C(N)=O [DHH] | 0.28 L/P | 55.9 ± 18.9 µM | 106 L/P | 684 L/P | 21.4 ± 2.47 µM | 11.9 ± 0.14 µM | 6.4 ± 0.42 µM | 0.67 L/P | 98 L/P | 692 L/P | – | – | – | –
CC(C)C[C@H](NC(=O)CN)C(=O)N[C@@H](CC(C)C)C(=O)N[C@@H](CC(=O)O)C(=O)N[C@@H](CC(C)C)C(=O)N[C@@H](CC(C)C)C(=O)N[C@@H](Cc1c[nH]cn1)C(=O)N[C@@H](CC(C)C)C(=O)N[C@@H](CC(C)C)C(=O)N[C@@H](CC(C)C)C(=O)N[C@@H](CCCCN)C(=O)N[C@@H](C)C(=O)N[C@@H](C)C(=O)NCC(=O)N[C@@H](Cc1c[nH]c2ccccc12)C(N)=O [DHK] | 0.38 L/P | – | 47 L/P | 747 L/P | – | – | – | 0.20 L/P | 183 L/P | 469 L/P | 20.4 ± 2.05 µM | 1.75 ± 0.49 µM | 1.02 ± 0.12 µM | 7.3 ± 0.42 µM
CC(C)C[C@H](NC(=O)CN)C(=O)N[C@@H](CC(C)C)C(=O)N[C@@H](Cc1c[nH]cn1)C(=O)N[C@@H](CC(C)C)C(=O)N[C@@H](CC(C)C)C(=O)N[C@@H](CCCCN)C(=O)N[C@@H](CC(C)C)C(=O)N[C@@H](CC(C)C)C(=O)N[C@@H](CC(C)C)C(=O)N[C@@H](Cc1c[nH]cn1)C(=O)N[C@@H](C)C(=O)N[C@@H](C)C(=O)NCC(=O)N[C@@H](Cc1c[nH]c2ccccc12)C(N)=O [HKH] | 0.38 L/P | 18.9 ± 1.24 µM | 193 L/P | 1077 L/P | 3.45 ± 0.21 µM | 3.1 ± 0.57 µM | 5.7 ± 0.99 µM | 0.18 L/P | 47 L/P | 274 L/P | – | – | – | –
